Reference: patent US20110160238A1, “OCTAHYDROQUINOLIZINES FOR ANTIDIABETIC TREATMENT” (55PHARMA DRUG DISCOVERY & DEVELOPMENT AG, priority 2008, published 2011)

System: Male C57BL/6 mice
Experiment: oral glucose tolerance test in mice
Format: in vivo
Conditions: oral glucose 3 g/kg at 0 min, versus vehicle
Protocol: All animal experiments described below and listed in Table 1 were performed in accordance to Austrian law and the principles of good laboratory animal care. Data shown in Table 1 are obtained using commercially available male mice purchased, e.g. from the breeding facilities of Charles River Lab. (USA). Male C57BL/6 mice were used at the age of 7-30 weeks and had free access to a standard laboratory chow diet (kg/kg: <10% crude fat) and water except for defined fasting periods before experimentation. They were maintained at room temperature and a 12 h/12 h light-dark cycle.
The antidiabetic activities of the products listed in Table 1 were evaluated in oral glucose tolerance tests in mice, in analogy to the procedure known to the general physician. Mice were fasted for 8-12 hours prior to oral glucose tolerance testing. For biological testing, the products listed in Table 1 were dissolved or suspended in 0.5% carboxymethylcellulose containing 1-2% acetic acid. A control group receiving no test product was examined in parallel in each test run. The control group received the same amount of a 0.5% carboxymethylcellulose solution containing 1-2% acetic acid (vehicle). Administration of products listed in Table 1 or vehicle at T=−45 min was followed after 45 min by oral administration via gavage of a glucose solution (3 g/kg) at T=0 min. Blood was collected via puncture of the tip of the tail immediately before administration of products listed in Table 1 or vehicle, immediately before administration of glucose, and at T=30 min and/or T=90 and/or T=150 as the case may be. Blood glucose was determined using portable glucometers as commonly used in human diabetes.
The increment in blood glucose at T=min over levels measured at T=0 min was calculated for each animal. Mean values of the increment for treatment group and vehicle group were compared (typical group size n=6-10 mice). Percent reduction induced by products listed in Table 1 versus vehicle was the readout parameter for glucose-lowering activity. As listed in Table 1, an effect of 1 means a reduction of more than 15% of incremental blood glucose at the given time point T=min versus vehicle group.
Antidiabetic effects of products are listed in Table 1 as evaluated in a glucose tolerance test in mice.

[1] = product dose 45 mg/kg per os at -45 min, glucose measurement at 30 min
[2] = product dose 90 mg/kg per os at -45 min, glucose measurement at 30 min

Structure (SMILES) | Antidiabetic activity [1] | Antidiabetic activity [2] | other results
CC1(c2ccccc2)CCC2(C)CC3(CCCO3)CCN2C1 (stereo not shown) [Product 5a, 7′,9a′-dimethyl-7′-phenyldecahydro-3H-spiro[furan-2,2′-quinolizine]] |  |  | Antidiabetic activity (product dose 22.5 mg/kg per os at -45 min, glucose measurement at 30 min): 1 (an effect of 1 means a reduction of more than 15% of incremental blood glucose at the given time point T=min versus vehicle group); Antidiabetic activity (product dose 90 mg/kg per os at -45 min, glucose measurement at 90 min): 1 (an effect of 1 means a reduction of more than 15% of incremental blood glucose at the given time point T=min versus vehicle group); Antidiabetic activity (product dose 90 mg/kg per os at -45 min, glucose measurement at 150 min): 1 (an effect of 1 means a reduction of more than 15% of incremental blood glucose at the given time point T=min versus vehicle group)
CC1(c2ccc(F)cc2)CCC2(C)CC3(CCCO3)CCN2C1 (stereo not shown) [Product 5b, 7′-(4-fluorophenyl)-7′,9a′-dimethyldecahydro-3H-spiro[furan-2,2′-quinolizine]] | 1 (an effect of 1 means a reduction of more than 15% of incremental blood glucose at the given time point T=min versus vehicle group) |  | 
CC1(c2ccc(F)cc2)CCC2(C)CC(=O)CCN2C1 (stereo not shown) [Product 3b, 7-(4-fluorophenyl)-7,9a-dimethyloctahydro-2H-quinolizin-2-one] |  | 1 (an effect of 1 means a reduction of more than 15% of incremental blood glucose at the given time point T=min versus vehicle group) | 
CC1(c2ccc(F)cc2)CCC2(C)CC3(CCC(=O)O3)CCN2C1 (stereo not shown) [Product 6b, 7′-(4-fluorophenyl)-7′,9a′-dimethyldecahydro-5H-spiro[furan-2,2′-quinolizine]-5-one] | 1 (an effect of 1 means a reduction of more than 15% of incremental blood glucose at the given time point T=min versus vehicle group) |  | 
CC1(c2ccccc2)CCC2(C)CC(=O)CCN2C1 (stereo not shown) [Product 3a, 7,9a-dimethyl-7-phenyloctahydro-2H-quinolizin-2-one] |  | 1 (an effect of 1 means a reduction of more than 15% of incremental blood glucose at the given time point T=min versus vehicle group) | 
